Earlier results on two compounds are cited in US12281362B2, “Diagnostic tools and treatments for clear cell renal cell carcinoma” (University of Cincinnati, priority 2020, dated 2025).

For data set [1] the following is noted: clinic.
The subject of a further data set is localized RCC. The note with it: adjuvant setting.

Turning to `CCN(CC)CCNC(=O)c1c(C)[nH]c(/C=C2\C(=O)Nc3ccc(F)cc32)c1C` [Sunitinib], the adverse effects result in data set [1] is given as “serious adverse effects”. Consider `CNC(=O)c1cc(Oc2ccc(NC(=O)Nc3ccc(Cl)c(C(F)(F)F)c3)cc2)ccn1` [sorafenib], for which the survival entry in the data set with localized RCC is “did not improve survival”.
